The source of these data is patent publication US12240851B1, “Pyrido[3′,4′:4,5]pyrrolo[3,2-c]naphthyridine compounds as CK2 inhibitors” (KING FAISAL UNIVERSITY, priority 2023, dated 2025).

In one experiment the test system is H1299 (lung). The experiment can be described thus: In vitro cytotoxic activity assay (MTT), H1299. The conditions noted are these: Homo sapiens, NCI-H1299, 96 hours exposure, read-out: IC50, 50% inhibition of cell proliferation. The format is cell-based. As to the method: (§1) Compounds 1-15 were screened for their in vitro cytotoxic activity utilizing a 3-(4,5-dimethyl-thiazol-2-yl)-2,5-diphenyltetrazolium bromide (MTT) assay against selected cancer human cell lines consisting of PC3 (prostate), HCT116 (colon), A375 (melanoma), H1299 (lung), MIAPaCa-2 (pancreas), HL60 (leukemia), MCF7 (breast), MDA-MB-231 (breast) (T. Mosmann, J. Immunol. Meth., 1983, 65, 55-63). The cells were cultured at 37° C. in RMPI1640 medium supplemented with 10% fetal bovine serum, 50 IU/mL penicillin, and 50 µg/mL streptomycin in a 5% CO2 incubator. All cells were sub-cultured 3 times/week by trypsinisation. Viable cells were seeded and allowed to adhere for 12 h before a test drug was added in 96-well plates at an initial density of 1.0×10^5 cells/mL. Tumour cell lines were separately exposed to various concentrations of the tested compounds followed by incubation at a temperature of 37° C. during 96 h inside a medium of fresh RMPI 1640. Cells were subsequently incubated at 37° C. using MTT at 0.5 mg/mL during 4 h. After removal of supernatant, formazan crystals were dissolved in isopropanol and the optical density was measured at 570 nm. CX-4945 was used as a positive control.

The test system of a further experiment is HL60 (leukemia). Nature of the experiment: In vitro cytotoxic activity assay (MTT), HL60. The format is cell-based. The conditions noted are these: Homo sapiens, HL-60, 96 hours exposure, read-out: IC50, 50% inhibition of cell proliferation. As to the method: as §1
A further experiment concerns A375 (melanoma). The experiment can be described thus: In vitro cytotoxic activity assay (MTT), A375. It counts as cell-based. To be noted: Homo sapiens, A-375, 96 hours exposure, read-out: IC50, 50% inhibition of cell proliferation. As to the method: as §1
Another experiment concerns PC3 (prostate). The experiment can be described thus: In vitro cytotoxic activity assay (MTT), PC3. It counts as cell-based. To be noted: Homo sapiens, 96 hours exposure, read-out: IC50, 50% inhibition of cell proliferation. As to the method:
as §1

Experiment [1] concerns the target T1, recombinant human CK2 (RRββ-holoenzyme) (Homo sapiens, UniProt P68400).
T1 construct: purchased Millipore
Nature of the experiment: CK2 Kinase Assay (33P-ATP, filter plate). It counts as biochemical. The conditions noted are these: final ATP concentration 15 μM, 10 min at 30° C.; read-out: protein kinase CK2 IC50. As to the method:
CK2 Kinase Assay was conducted using the protocol as described in Pierre F. et al; J. Med. Chem. 2011, 54, 635-654. The tested compounds in aqueous solution were added at a volume of 10 μL to a reaction mixture comprising 10 μL of assay dilution buffer (ADB; 20 mM MOPS, pH 7.2, 25 mM β-glycerol phosphate, 5 mM EGTA, 1 mM sodium orthovanadate, and 1 mM dithiothreitol), 10 μL of substrate peptide (RRRDDDSDDD, dissolved in ADB at a concentration of 1 mM), 10 μL of recombinant human CK2 (RRββ-holoenzyme, 25 ng dissolved in ADB; Millipore). Reactions were initiated by the addition of 10 μL of ATP solution (90% 75 mMMgCl2, 75 μM ATP (final ATP concentration:15 μM) dissolved in ADB; 10% [γ-33P] ATP (stock 1mCi/100 μL; 3000 Ci/mmol (Perkin-Elmer) and maintained for 10 min at 30° C. The reactions were quenched with 100 μL of 0.75% phosphoric acid and then transferred to and filtered through a phosphor cellulose filter plate (Millipore). After washing each well five times with 0.75% phosphoric acid, the plate was dried under vacuum for 5 min and, following the addition of 15 μL of scintillation fluid to each well, the residual radioactivity was measured using a Wallac […]. The IC50 values were derived from eight concentrations of test inhibitors.

The subject of another experiment is MDA-MB-231 (breast). Nature of the experiment: In vitro cytotoxic activity assay (MTT), MDA-MB-231. It counts as cell-based. To be noted: Homo sapiens, 96 hours exposure, read-out: IC50, 50% inhibition of cell proliferation. The method, then: as §1
The test system of a further experiment is MIAPaCa-2 (pancreas). The experiment can be described thus: In vitro cytotoxic activity assay (MTT), MIAPaCa-2. It counts as cell-based. The conditions noted are these: Homo sapiens, MIA PaCa-2, 96 hours exposure, read-out: IC50, 50% inhibition of cell proliferation. The method, then: as §1
A further experiment relates to MCF7 (breast). The experiment can be described thus: In vitro cytotoxic activity assay (MTT), MCF7. It counts as cell-based. To be noted: Homo sapiens, 96 hours exposure, read-out: IC50, 50% inhibition of cell proliferation. The method, then: as §1
The next experiment concerns HCT116 (colon). The experiment can be described thus: In vitro cytotoxic activity assay (MTT), HCT116. To be noted: Homo sapiens, HCT-116, 96 hours exposure, read-out: IC50, 50% inhibition of cell proliferation. The format is cell-based. The method, then: as §1

T1 sequence (P68400 whole entry): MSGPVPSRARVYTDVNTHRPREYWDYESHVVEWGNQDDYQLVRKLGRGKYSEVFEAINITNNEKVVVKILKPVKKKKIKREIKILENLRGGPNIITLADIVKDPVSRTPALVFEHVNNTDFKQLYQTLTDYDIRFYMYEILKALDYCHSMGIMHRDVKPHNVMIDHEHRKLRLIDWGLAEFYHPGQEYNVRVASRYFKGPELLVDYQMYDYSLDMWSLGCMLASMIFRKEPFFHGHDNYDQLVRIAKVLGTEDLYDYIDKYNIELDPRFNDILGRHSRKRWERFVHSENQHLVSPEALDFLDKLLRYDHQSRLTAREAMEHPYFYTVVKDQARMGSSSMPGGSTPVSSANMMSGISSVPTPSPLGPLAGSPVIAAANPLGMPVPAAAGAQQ
T1 sequence (P67870 whole entry partner): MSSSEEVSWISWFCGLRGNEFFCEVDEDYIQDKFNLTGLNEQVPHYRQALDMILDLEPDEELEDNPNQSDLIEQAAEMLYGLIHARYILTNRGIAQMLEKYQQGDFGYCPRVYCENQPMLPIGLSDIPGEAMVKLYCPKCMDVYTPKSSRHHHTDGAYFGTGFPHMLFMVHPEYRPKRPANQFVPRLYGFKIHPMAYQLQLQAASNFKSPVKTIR

Turning to `Clc1cccc(Nc2nc3c4cnccc4[nH]c3c3cnccc23)c1` [Compound (1), N-(3-chlorophenyl)-11H-pyrido[3′,4′:4,5]pyrrolo[3,2-c][2,6]naphthyridin-5-amine], the IC50 with H1299 (lung) stood at 1.1 µM; in the experiment with HL60 (leukemia), 3.2 µM; with A375 (melanoma), 4 µM; in the experiment on PC3 (prostate), 0.8 µM; in experiment [1], 0.021 µM; in the experiment on MDA-MB-231 (breast) it was 2.9 µM. Also, the IC50 in the experiment with MIAPaCa-2 (pancreas) was 1.4 µM; in the experiment with MCF7 (breast) it was 2.5 µM; in the experiment on HCT116 (colon), 1.5 µM.
